# Where two headings read alike, the source gives them in different places.
# How the values were obtained:
# Type in all cases: cell-based
# 168 GPCRs [1] = biological target: T1, 168 GPCRs (Homo sapiens, UniProt P29371); conditions: TACR3
# T1 construct: host or cells: PathHunter cell lines
# T1 sequence (P29371 1-465): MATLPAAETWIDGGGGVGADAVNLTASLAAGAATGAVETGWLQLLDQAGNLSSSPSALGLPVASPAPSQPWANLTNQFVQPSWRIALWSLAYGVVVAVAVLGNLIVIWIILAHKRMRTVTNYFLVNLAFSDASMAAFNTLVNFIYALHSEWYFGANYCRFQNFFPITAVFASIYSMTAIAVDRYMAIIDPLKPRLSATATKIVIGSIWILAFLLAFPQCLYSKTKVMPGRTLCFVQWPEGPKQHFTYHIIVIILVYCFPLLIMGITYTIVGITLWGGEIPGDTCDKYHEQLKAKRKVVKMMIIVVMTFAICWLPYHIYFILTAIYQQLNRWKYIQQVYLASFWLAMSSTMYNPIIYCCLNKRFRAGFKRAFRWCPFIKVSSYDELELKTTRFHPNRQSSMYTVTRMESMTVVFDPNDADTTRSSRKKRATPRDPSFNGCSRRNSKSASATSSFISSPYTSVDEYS
# 168 GPCRs [2] = biological target: T2, 168 GPCRs (Homo sapiens, UniProt P25021)
# T2 construct: host or cells: PathHunter cell lines
# T2 sequence (P25021 whole entry): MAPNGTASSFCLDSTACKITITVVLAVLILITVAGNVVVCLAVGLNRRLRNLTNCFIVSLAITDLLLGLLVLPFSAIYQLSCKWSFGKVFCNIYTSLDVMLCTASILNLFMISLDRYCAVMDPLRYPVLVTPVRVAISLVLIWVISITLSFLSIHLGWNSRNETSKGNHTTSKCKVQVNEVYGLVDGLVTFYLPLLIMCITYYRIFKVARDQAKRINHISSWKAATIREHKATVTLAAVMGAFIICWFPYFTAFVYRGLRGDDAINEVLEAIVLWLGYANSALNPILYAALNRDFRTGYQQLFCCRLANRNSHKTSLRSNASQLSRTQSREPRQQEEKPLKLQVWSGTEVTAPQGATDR
# 168 GPCRs [3] = biological target: T3, 168 GPCRs (Homo sapiens, UniProt P48145)
# T3 construct: host or cells: PathHunter cell lines
# T3 sequence (P48145 1-328): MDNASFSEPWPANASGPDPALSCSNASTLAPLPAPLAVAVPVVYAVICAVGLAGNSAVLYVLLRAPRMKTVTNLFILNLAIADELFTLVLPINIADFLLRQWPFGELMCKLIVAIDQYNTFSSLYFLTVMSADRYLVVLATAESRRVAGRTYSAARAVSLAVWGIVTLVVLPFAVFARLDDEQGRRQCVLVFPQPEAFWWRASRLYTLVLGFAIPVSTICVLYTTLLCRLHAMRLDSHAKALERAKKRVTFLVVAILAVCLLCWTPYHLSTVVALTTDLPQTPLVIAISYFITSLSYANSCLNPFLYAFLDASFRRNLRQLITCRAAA
# 168 GPCRs [4] = biological target: T4, 168 GPCRs (Homo sapiens, UniProt P55085)
# T4 construct: host or cells: PathHunter cell lines
# T4 sequence (P55085 26-397): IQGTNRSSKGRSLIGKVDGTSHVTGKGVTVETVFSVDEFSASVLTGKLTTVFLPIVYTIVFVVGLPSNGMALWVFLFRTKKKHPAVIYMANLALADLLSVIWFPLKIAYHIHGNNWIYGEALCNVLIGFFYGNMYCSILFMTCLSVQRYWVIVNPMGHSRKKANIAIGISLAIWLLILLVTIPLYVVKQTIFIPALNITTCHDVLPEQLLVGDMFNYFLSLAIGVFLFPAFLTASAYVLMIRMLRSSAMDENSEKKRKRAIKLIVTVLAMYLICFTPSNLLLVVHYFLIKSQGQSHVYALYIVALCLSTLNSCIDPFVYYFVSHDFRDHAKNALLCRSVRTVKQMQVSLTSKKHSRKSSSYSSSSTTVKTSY
# 168 GPCRs [5] = biological target: T5, 168 GPCRs (Homo sapiens, UniProt P30559); conditions: OXTR
# T5 construct: host or cells: PathHunter cell lines
# T5 sequence (P30559 1-389): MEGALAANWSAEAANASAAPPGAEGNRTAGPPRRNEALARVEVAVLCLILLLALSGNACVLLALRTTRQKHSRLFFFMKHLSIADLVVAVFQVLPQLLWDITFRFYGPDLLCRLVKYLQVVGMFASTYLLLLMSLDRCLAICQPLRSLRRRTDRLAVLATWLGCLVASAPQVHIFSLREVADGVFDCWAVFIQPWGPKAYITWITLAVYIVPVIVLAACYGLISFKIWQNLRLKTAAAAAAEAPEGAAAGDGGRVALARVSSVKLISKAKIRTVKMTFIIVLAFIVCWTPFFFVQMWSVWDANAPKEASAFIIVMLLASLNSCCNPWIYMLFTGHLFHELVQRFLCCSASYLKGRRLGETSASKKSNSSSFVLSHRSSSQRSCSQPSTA
# 168 GPCRs [6] = biological target: T6, 168 GPCRs (Homo sapiens, UniProt P48146)
# T6 construct: host or cells: PathHunter cell lines
# T6 sequence (P48146 whole entry): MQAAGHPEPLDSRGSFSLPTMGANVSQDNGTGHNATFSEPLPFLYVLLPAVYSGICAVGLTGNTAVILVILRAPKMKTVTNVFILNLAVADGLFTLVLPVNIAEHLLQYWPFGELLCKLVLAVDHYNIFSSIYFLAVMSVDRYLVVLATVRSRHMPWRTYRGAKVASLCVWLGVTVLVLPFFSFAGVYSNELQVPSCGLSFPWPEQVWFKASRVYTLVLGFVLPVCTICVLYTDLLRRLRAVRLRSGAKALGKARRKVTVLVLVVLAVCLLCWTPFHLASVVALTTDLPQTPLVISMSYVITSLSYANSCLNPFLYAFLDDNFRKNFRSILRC
# 168 GPCRs [7] = biological target: T7, 168 GPCRs (Homo sapiens, UniProt P32745); conditions: SSTR3
# T7 construct: host or cells: PathHunter cell lines
# T7 sequence (P32745 whole entry): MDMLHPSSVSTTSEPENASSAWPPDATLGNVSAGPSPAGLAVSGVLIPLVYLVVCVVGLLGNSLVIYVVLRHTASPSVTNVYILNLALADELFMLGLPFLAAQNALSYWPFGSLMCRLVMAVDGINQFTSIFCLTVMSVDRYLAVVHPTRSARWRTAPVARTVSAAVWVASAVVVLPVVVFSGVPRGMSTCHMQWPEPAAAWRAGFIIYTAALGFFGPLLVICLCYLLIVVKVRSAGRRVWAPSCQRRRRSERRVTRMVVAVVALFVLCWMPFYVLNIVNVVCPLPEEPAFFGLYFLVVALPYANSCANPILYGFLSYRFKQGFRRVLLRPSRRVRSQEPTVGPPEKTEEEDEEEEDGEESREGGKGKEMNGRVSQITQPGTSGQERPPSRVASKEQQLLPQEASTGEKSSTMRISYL
Structure (SMILES),% Agonist Activity (168 GPCRs [1]; Conc 1 uM) [%],% Antagonist Activity (168 GPCRs [1]; Conc 1 uM) [%],% Agonist Activity (168 GPCRs [1]; Conc 10 uM) [%],% Antagonist Activity (168 GPCRs [1]; Conc 10 uM) [%],"% Agonist Activity (168 GPCRs [2]; HRH2, 1 uM) [%]","% Antagonist Activity (168 GPCRs [2]; HRH2, 1 uM) [%]","% Agonist Activity (168 GPCRs [2]; HRH2, 10 uM) [%]","% Antagonist Activity (168 GPCRs [2]; HRH2, 10 uM) [%]","% Agonist Activity (168 GPCRs [3]; NPBWR1, 1 uM) [%]","% Antagonist Activity (168 GPCRs [3]; NPBWR1, 1 uM) [%]","% Agonist Activity (168 GPCRs [3]; NPBWR1, 10 uM) [%]","% Antagonist Activity (168 GPCRs [3]; NPBWR1, 10 uM) [%]","% Agonist Activity (168 GPCRs [4]; F2RL1, 1 uM) [%]","% Antagonist Activity (168 GPCRs [4]; F2RL1, 1 uM) [%]","% Agonist Activity (168 GPCRs [4]; F2RL1, 10 uM) [%]","% Antagonist Activity (168 GPCRs [4]; F2RL1, 10 uM) [%]",% Agonist Activity (168 GPCRs [5]; Conc 1 uM) [%],% Antagonist Activity (168 GPCRs [5]; Conc 1 uM) [%],% Agonist Activity (168 GPCRs [5]; Conc 10 uM) [%],% Antagonist Activity (168 GPCRs [5]; Conc 10 uM) [%],further results
CNC(C)C(=O)c1ccc2c(c1)OCO2 (centres unmarked) [methylone],0.8,-3.9,1.1,-14.3,-2.5,7.1,-2.8,8.1,1.6,17.1,-1.9,25.1,-0.6,-26.8,3.8,-16.2,-0.6,12.7,-0.5,6.9,"% Agonist Activity (168 GPCRs [6]; NPBWR2, 1 uM): -0.3%; % Antagonist Activity (168 GPCRs [6]; NPBWR2, 1 uM): -14.1%; % Agonist Activity (168 GPCRs [6]; NPBWR2, Conc 10 uM): 1.3%; % Antagonist Activity (168 GPCRs [6]; NPBWR2, Conc 10 uM): -14%; % Agonist Activity (168 GPCRs [7]; Conc 1 uM): 0.7%; % Antagonist Activity (168 GPCRs [7]; Conc 1 uM): 13.2%; % Agonist Activity (168 GPCRs [7]; Conc 10 uM): 0.3%; % Antagonist Activity (168 GPCRs [7]; Conc 10 uM): 8%"
"CNC(C)Cc1ccc2c(c1)OCO2 (centres unmarked) [MDMA, 3,4-Methylenedioxy methamphetamine, reference compound]",0.1,14.6,1,19.1,3.3,8.4,-3.7,15.3,-10.2,-7.5,-13.4,-8.5,16.4,9.6,1.8,10.9,-0.2,3.7,0.6,8.2,"% Agonist Activity (168 GPCRs [6]; NPBWR2, 1 uM): -2.6%; % Antagonist Activity (168 GPCRs [6]; NPBWR2, 1 uM): -2.1%; % Agonist Activity (168 GPCRs [6]; NPBWR2, Conc 10 uM): -2.3%; % Antagonist Activity (168 GPCRs [6]; NPBWR2, Conc 10 uM): 2.4%; % Agonist Activity (168 GPCRs [7]; Conc 1 uM): 2.9%; % Antagonist Activity (168 GPCRs [7]; Conc 1 uM): 3.7%; % Agonist Activity (168 GPCRs [7]; Conc 10 uM): 0.1%; % Antagonist Activity (168 GPCRs [7]; Conc 10 uM): -0.9%"

# Source: article PMC10882719 (Frontiers in Neuroscience, 2024)
